Results as given in ChEMBL document CHEMBL5291721, “A preclinical secondary pharmacology resource illuminates target-adverse drug reaction associations of marketed drugs” (Nat Commun, 2023).

What was measured:
[1] = molecular target: 3',5'-cyclic-AMP phosphodiesterase 4D (Homo sapiens, UniProt Q08499); type: functional
[2] = molecular target: T1, Prostaglandin G/H synthase 1 (Rattus norvegicus, UniProt Q63921); type: functional
T1 sequence (Q63921 whole entry): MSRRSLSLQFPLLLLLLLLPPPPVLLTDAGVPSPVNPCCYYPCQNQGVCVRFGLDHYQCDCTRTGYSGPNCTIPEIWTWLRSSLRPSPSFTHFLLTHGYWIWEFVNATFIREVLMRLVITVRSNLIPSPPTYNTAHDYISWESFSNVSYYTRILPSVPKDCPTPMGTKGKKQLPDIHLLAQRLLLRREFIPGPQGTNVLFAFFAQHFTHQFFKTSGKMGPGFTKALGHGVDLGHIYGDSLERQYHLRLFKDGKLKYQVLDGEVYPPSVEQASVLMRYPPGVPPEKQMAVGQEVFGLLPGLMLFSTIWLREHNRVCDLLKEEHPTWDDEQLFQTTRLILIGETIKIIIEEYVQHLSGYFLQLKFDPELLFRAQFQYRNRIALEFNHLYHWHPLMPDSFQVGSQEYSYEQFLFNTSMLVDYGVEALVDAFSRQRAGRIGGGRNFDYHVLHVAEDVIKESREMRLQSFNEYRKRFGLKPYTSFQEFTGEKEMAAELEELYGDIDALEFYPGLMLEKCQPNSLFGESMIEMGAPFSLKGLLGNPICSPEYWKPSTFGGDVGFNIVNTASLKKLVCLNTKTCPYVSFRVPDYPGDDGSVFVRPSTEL

[3] = molecular target: T2, Adenosine receptor A3 (Homo sapiens, UniProt P0DMS8)
T2 sequence (P0DMS8 whole entry): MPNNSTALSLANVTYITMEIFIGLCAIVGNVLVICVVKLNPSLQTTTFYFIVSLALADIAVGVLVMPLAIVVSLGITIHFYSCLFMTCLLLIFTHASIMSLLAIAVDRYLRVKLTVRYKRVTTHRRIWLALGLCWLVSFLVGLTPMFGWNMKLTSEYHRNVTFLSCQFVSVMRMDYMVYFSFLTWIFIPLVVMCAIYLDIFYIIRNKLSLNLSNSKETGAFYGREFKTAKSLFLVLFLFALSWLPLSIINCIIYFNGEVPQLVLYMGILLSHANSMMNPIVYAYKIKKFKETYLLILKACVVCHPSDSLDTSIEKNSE

[4] = molecular target: T3, 5-hydroxytryptamine receptor 2C (Homo sapiens, UniProt P28335)
T3 sequence (P28335 whole entry): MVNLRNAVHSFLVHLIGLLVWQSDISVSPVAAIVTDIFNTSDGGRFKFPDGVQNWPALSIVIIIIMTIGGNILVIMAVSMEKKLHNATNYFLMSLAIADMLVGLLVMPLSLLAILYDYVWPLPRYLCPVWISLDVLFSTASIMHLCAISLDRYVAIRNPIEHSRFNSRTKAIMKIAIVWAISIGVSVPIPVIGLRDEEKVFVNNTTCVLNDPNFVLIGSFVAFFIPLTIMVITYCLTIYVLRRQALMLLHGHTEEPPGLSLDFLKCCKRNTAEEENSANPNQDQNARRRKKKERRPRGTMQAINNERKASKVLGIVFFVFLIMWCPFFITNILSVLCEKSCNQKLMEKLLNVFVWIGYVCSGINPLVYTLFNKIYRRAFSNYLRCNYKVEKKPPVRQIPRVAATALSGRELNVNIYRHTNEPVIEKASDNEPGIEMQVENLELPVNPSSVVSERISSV

[5] = molecular target: Neuronal acetylcholine receptor subunit alpha-4 (Homo sapiens, UniProt P43681)
[6] = molecular target: T4, 5-hydroxytryptamine receptor 3A (Homo sapiens, UniProt P46098); type: functional
T4 sequence (P46098 whole entry): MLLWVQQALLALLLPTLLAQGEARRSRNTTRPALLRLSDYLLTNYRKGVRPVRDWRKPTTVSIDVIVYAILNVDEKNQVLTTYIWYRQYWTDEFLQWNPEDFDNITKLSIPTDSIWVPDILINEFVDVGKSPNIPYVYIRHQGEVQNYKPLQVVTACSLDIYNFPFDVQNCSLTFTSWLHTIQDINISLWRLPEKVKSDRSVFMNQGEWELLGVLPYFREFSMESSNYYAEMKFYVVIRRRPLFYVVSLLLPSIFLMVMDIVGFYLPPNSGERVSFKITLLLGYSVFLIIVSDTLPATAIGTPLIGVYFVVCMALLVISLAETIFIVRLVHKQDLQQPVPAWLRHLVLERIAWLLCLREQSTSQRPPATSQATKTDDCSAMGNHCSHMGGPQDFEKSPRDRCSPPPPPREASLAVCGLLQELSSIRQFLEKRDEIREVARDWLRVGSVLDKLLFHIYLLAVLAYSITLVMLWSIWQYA

[7] = molecular target: T5, 5-hydroxytryptamine receptor 1A (Homo sapiens, UniProt P08908); type: functional, cell-based
T5 sequence (P08908 whole entry): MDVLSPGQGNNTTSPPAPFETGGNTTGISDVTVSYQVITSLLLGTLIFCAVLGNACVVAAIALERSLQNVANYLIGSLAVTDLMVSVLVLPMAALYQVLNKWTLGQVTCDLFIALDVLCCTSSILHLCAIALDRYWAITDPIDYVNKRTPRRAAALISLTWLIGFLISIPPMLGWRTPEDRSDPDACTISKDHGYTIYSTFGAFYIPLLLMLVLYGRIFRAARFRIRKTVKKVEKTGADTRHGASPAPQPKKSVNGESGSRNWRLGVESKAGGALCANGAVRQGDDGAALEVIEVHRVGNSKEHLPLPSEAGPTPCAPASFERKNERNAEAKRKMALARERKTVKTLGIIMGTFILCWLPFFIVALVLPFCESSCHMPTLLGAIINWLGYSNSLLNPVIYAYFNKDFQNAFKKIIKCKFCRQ
Note: assay procedure not described here.

Sequence of 3',5'-cyclic-AMP phosphodiesterase 4D (Q08499 whole entry): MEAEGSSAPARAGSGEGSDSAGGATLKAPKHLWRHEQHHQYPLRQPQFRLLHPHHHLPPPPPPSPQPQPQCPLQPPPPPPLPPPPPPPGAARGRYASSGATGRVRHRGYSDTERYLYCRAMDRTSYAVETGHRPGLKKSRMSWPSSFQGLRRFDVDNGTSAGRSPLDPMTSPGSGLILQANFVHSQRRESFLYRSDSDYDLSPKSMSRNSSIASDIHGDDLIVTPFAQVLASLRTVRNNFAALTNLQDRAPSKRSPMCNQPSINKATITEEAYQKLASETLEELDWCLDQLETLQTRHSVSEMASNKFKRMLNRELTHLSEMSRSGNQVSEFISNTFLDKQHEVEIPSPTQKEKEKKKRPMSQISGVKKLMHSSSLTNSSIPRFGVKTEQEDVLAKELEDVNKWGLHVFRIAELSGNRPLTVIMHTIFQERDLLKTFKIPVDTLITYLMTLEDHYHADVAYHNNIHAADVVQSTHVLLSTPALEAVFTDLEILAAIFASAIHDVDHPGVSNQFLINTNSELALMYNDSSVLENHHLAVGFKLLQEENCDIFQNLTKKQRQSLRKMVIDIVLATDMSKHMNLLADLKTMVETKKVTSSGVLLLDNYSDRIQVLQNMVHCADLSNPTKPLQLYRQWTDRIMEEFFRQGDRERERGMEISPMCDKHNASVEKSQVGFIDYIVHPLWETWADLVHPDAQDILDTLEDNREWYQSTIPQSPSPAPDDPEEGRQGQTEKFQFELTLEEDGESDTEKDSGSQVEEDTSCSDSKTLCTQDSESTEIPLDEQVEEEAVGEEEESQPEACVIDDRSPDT
Sequence of Neuronal acetylcholine receptor subunit alpha-4 (P43681 whole entry): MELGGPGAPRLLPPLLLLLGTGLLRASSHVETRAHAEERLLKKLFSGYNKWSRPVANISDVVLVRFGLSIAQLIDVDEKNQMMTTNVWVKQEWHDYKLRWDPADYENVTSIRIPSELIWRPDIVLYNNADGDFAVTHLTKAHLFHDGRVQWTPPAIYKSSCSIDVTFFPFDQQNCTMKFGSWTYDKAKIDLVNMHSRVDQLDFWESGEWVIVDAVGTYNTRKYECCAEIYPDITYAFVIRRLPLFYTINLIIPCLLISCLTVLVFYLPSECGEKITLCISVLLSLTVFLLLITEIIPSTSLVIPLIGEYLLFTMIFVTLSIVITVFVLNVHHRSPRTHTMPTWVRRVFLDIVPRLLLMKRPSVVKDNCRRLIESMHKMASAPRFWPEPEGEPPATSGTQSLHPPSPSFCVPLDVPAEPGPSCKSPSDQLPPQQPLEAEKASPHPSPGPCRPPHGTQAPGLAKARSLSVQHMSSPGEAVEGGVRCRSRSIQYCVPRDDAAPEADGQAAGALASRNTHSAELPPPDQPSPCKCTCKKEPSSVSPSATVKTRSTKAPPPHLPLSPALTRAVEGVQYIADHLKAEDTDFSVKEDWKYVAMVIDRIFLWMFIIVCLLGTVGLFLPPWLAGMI

CCC[C@H](NC(=O)[C@@H]1[C@H]2CCC[C@H]2CN1C(=O)[C@@H](NC(=O)[C@@H](NC(=O)c1cnccn1)C1CCCCC1)C(C)(C)C)C(=O)C(=O)NC1CC1
AC50 [1]: > 30 µM | AC50 [2]: > 30 µM | AC50 [3]: > 30 µM | AC50 [4]: > 30 µM | AC50 [5]: > 10 µM | AC50 [6]: > 30 µM

CC(=O)N[C@@H](CS)C(=O)O [ACETYLCYSTEINE]
AC50 [1]: > 30 µM | AC50 [3]: > 30 µM | AC50 [4]: > 30 µM | AC50 [5]: > 30 µM | AC50 [7]: > 30 µM | AC50 [6]: > 30 µM

C=CCNc1nc(NCC=C)nc(N2CCN(C(c3ccc(F)cc3)c3ccc(F)cc3)CC2)n1 [ALMITRINE]
AC50 [1]: > 30 µM | AC50 [2]: > 30 µM | AC50 [3]: > 30 µM | AC50 [4]: > 30 µM | AC50 [5]: > 30 µM | AC50 [7]: > 30 µM | AC50 [6]: > 30 µM

CN1CCC(=C2c3ccccc3CCc3cccnc32)CC1 [AZATADINE]
AC50 [1]: > 30 µM | AC50 [2]: > 30 µM | AC50 [3]: > 30 µM | AC50 [4]: 3.1 µM | AC50 [5]: > 10 µM | AC50 [7]: > 30 µM | AC50 [6]: > 30 µM

CC(C)COCC(CN(Cc1ccccc1)c1ccccc1)N1CCCC1 (centres undefined) [BEPRIDIL]
AC50 [1]: > 30 µM | AC50 [2]: > 30 µM | AC50 [4]: > 30 µM | AC50 [7]: > 30 µM | AC50 [6]: > 30 µM

CCCCC(=O)O[C@]1(C(=O)CO)[C@@H](C)C[C@H]2[C@@H]3CCC4=CC(=O)C=C[C@]4(C)[C@@]3(F)[C@@H](O)C[C@@]21C [BETAMETHASONE VALERATE]
AC50 [1]: > 30 µM | AC50 [2]: > 30 µM | AC50 [3]: > 30 µM | AC50 [4]: > 30 µM | AC50 [5]: > 10 µM | AC50 [7]: > 30 µM | AC50 [6]: > 30 µM

C/N=C(\NC)NCc1ccccc1 [BETHANIDINE]
AC50 [1]: > 30 µM | AC50 [2]: > 30 µM | AC50 [3]: > 30 µM | AC50 [4]: > 10 µM | AC50 [5]: > 30 µM | AC50 [7]: > 30 µM | AC50 [6]: > 30 µM

CCC(C)C1(CC)C(=O)NC(=O)NC1=O (centres undefined) [BUTABARBITAL]
AC50 [1]: > 30 µM | AC50 [2]: > 30 µM | AC50 [3]: > 30 µM | AC50 [5]: > 30 µM | AC50 [7]: > 30 µM

COCC1=C(C(=O)O)N2C(=O)[C@@H](NC(=O)/C(=N\OC)c3csc(N)n3)[C@H]2SC1 [CEFPODOXIME]
AC50 [1]: > 30 µM | AC50 [2]: > 30 µM | AC50 [3]: > 30 µM | AC50 [4]: 0.12 µM | AC50 [5]: > 30 µM | AC50 [7]: > 30 µM | AC50 [6]: > 30 µM

CC1OC2(CS1)CN1CCC2CC1 (centres undefined) [CEVIMELINE]
AC50 [1]: > 30 µM | AC50 [2]: > 10 µM | AC50 [3]: > 10 µM | AC50 [4]: > 30 µM | AC50 [5]: > 10 µM | AC50 [7]: > 10 µM | AC50 [6]: > 30 µM

CNC1=Nc2ccc(Cl)cc2C(c2ccccc2)=[N+]([O-])C1 [CHLORDIAZEPOXIDE]
AC50 [1]: > 10 µM | AC50 [2]: > 30 µM | AC50 [4]: > 30 µM | AC50 [5]: > 10 µM | AC50 [7]: > 30 µM | AC50 [6]: > 30 µM

O=C(O)c1cn(C2CC2)c2cc(N3CCNCC3)c(F)cc2c1=O [CIPROFLOXACIN]
AC50 [1]: > 30 µM | AC50 [3]: > 30 µM

COc1cc(N)c(Cl)cc1C(=O)NC1CCN(Cc2ccccc2)CC1 [CLEBOPRIDE]
AC50 [1]: 2.9 µM | AC50 [2]: 14 µM | AC50 [3]: > 30 µM | AC50 [4]: 13 µM | AC50 [5]: 24 µM | AC50 [7]: > 30 µM | AC50 [6]: 8.6 µM
